In article PMC6572135, “N-Methyl-D-glucamine–Calix[4]resorcinarene Conjugates: Self-Assembly and Biological Properties” (Molecules, 2019):
≈ marks a conversion by molar mass, not a printed value.

Tests used:
C.albicans 855–653 = assay: Fungicidal activity (MFC); assay type: cell-based; settings: Candida albicans; C.albicans 855–653, fungicidal activity; read-out: Minimal Fungicidal Concentration (MFC)
Experimental: (§1) In vitro bacteriostatic and fungistatic activities of the macrocycles were evaluated against pathogenic representatives of Gram-positive bacteria (Staphylococcus aureus 209p, Bacillus cereus 8035), Gram-negative bacteria (Pseudomonas aeruginosa 9027, Escherichia coli F-50), and yeast (Trichophyton mentagrophytes var. gypseum 1773, Aspergillus niger BKMF-1119, Candida albicans 885–653). Minimal inhibitory concentrations (MICs) were estimated by conventional dilution methods for bacteria and fungi. The antibacterial and antifungal assays were performed in Hottinger broth (HiMe-dia Laboratories Pvt. Ltd. Mumbai, India) and Sabouraud dextrose broth (HiMedia Laboratories Pvt. Ltd.) (bacteria 3 × 10^5 cfu/mL and yeast 2 × 10^4 cfu/mL). The bactericidal and fungicidal activities were determined as described earlier. The tests were repeated three times.

Chang liver cell line = assay: Cell viability evaluation (Cytell Cell Imaging); assay type: cell-based; settings: 50% inhibition of cell growth, human hepatocytes, read-out: IC50 on Chang Liver Cells Line
Experimental: Cell viability of human hepatocytes cells (Chang liver cell line from the N. F. Gamaleya Research Center of Epidemiology and Microbiology) toward macrocycles was determined by means of multifunctional system Cytell Cell Imaging (GE Healthcare, Issaquah, WA, USA) using application Cell Viability BioApp and Automated Imaging BioApp. The cells were dispersed on a 96-well plate at a concentration of 200,000 cells/mL and cultivated in CO2-incubator at 37 °C. Next, the culture medium was sampled in 24 h, and 150 μL of the studied dispersions was added to each well. The experiments were repeated three times. Intact cells cultivated simultaneously with the studied ones served as a reference. The fraction of the grown-up cells was expressed in % vs. reference cells. Degree of cell growth inhibition under the influence of testing agent was calculated by equation:N (%) = (1 − Exp/Control) × 100(1) where Exp is the quantity of uninhibited cells in sample studied, Control is the quantity of uninhibited cells in control sample. Then the IC50 (concentration which caused 50% cell growth inhibition) was determined from curve of cell cultural growth versus macrocycle concentration. The experiments were repeated three times and results are presented as the mean ± standard deviation.

S. aureus 209P = assay: Bacteriostatic activity (MIC), dilution method; assay type: cell-based; settings: Staphylococcus aureus, read-out: Minimal Inhibiting Concentration (MIC)
Experimental: as §1

B. cereus 8035 = assay: Bacteriostatic activity (MIC), dilution method; assay type: cell-based; settings: Bacillus cereus; B. cereus 8035, bacteriostatic activity; read-out: Minimal Inhibiting Concentration (MIC)
Experimental: as §1

[1] = Conductometry, critical aggregation concentration; assay type: physicochemical; settings: water solution, 25 °C; GCR-2 in the presence of two-fold excess of MG
Experimental: Firstly, self-assembly of GCR-1 was studied by conductometric measurements (Figure 1). Specific conductivity increases proportionately with the GCR-1 concentration in water solution. Inflection on the plot appears at 14 mM, and after this critical aggregation concentration (CAC) the increment rate of conductivity reduces because the aggregates transfer charge less efficiently than monomers. Remarkably, modification of calix[4]resorcinarene by N-methyl-D-glucamine fragment facilitates self-aggregation of macrocycle in water medium (Figure 1). The CAC value for calix[4]resorcinarene (CR-1) without meglumine units at the upper rim is 20 mM that is greater than that for meglumine-modified calix[4]resorcinarene. The driving forces of intermolecular aggregates’ formation are probably hydrogen bonds between hydroxyl groups on the GCR-1 upper rim, so the presence of additional OH-groups in the meglumine group reinforces this noncovalent interaction. A stable pH value, which can be observed over a wide range of concentrations, verifies that the N-methyl-D-glucamine fragment is an effective buffer component (Figure S4). […] As a result, the aggregation of this calix[4]resorcinarene was studied in water solutions at the presence of two-fold excess of N-methyl-D-glucamine (MG). […] Specific conductivity values were measured at least three times for each concentration. […]

For `CC1c2cc(c(O)c(CN(C)C[C@@H](O)[C@H](O)[C@@H](O)[C@@H](O)CO)c2O)C(C)c2cc(c(O)c(CN(C)C[C@@H](O)[C@H](O)[C@@H](O)[C@@H](O)CO)c2O)C(C)c2cc(c(O)c(CN(C)C[C@@H](O)[C@H](O)[C@@H](O)[C@@H](O)CO)c2O)C(C)c2cc1c(O)c(CN(C)C[C@@H](O)[C@H](O)[C@@H](O)[C@@H](O)CO)c2O` (stereo partly drawn) [GCR-2, N-methyl-D-glucaminemethyl methylcalix[4]resorcinarene], the MFC (C.albicans 855–653) was > 500 µM, the IC50 (Chang liver cell line) was > 100 µM and the MIC (S. aureus 209P) was 130 ± 10 µM (≈ 179 µg/mL). For the same compound, the MIC (B. cereus 8035) was 250 µM (≈ 343 µg/mL) and the “CAC, conductometry” value [1] was 7.9 mM.
